# pKi: −log10 of the molar value.
# Biological target: T1, 5-hydroxytryptamine receptor 1A (Homo sapiens) (UniProt P08908)
# T1 sequence (whole entry): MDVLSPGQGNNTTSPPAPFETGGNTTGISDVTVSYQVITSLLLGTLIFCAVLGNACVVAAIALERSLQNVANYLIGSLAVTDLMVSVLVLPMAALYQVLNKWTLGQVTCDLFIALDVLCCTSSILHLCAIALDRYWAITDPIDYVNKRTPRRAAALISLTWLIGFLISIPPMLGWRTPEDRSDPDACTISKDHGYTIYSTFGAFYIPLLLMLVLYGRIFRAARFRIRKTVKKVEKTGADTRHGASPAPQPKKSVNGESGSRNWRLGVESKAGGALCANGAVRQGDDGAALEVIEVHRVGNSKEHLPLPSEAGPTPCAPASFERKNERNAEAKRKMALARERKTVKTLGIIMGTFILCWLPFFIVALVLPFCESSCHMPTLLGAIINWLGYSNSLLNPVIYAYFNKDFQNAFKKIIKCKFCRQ
# Assay: Stimulation of binding of [35S]GTP-gamma-S, to G protein mediated by human cloned 5-hydroxytryptamine 1A receptor tested in vitro at 1 uM.
# Assay type: functional
# Conditions: not given
row,SMILES,Stimulation
1,C[C@H]1C[C@H](c2cc3ccccc3s2)CCN1C[C@H](O)COc1cccc2[nH]ccc12,6.32%
2,C[C@H]1C[C@H](c2cc3cc(F)ccc3s2)CCN1C[C@H](O)COc1cccc2[nH]ccc12,7.68%
3,C[C@H]1C[C@H](c2cc3cccc(F)c3s2)CCN1C[C@H](O)COc1cccc2[nH]ccc12,2.66%
4,COc1cccc2sc([C@@H]3CCN(C[C@H](O)COc4cccc5[nH]ccc45)[C@H](C)C3)cc12,1.2%
5,COc1ccc2sc([C@@H]3CCN(C[C@H](O)COc4cccc5[nH]ccc45)[C@@H](C)C3)cc2c1OC,8.38%
6,C[C@H]1C[C@H](c2cc3cc(Cl)ccc3s2)CCN1C[C@H](O)COc1cccc2[nH]ccc12,3.97%
7,C[C@@H]1C[C@@H](c2cc3cc(F)ccc3s2)CCN1C[C@H](O)COc1cccc2[nH]ccc12,6.35%
8,COc1cccc2sc([C@H]3CCN(C[C@H](O)COc4cccc5[nH]ccc45)[C@H](C)C3)cc12,4.41%
9,COc1cccc2sc([C@@H]3C[C@H]4CC[C@@H](C3)N4C[C@H](O)COc3cccc4[nH]ccc34)cc12 (stereo in doubt; exo) [listing 1 of 2 here],7.22%
10,C[C@H]1C[C@@H](c2cc3cc(F)ccc3s2)CCN1C[C@H](O)COc1cccc2[nH]ccc12,3.24%
11,C[C@H]1C[C@H](c2cc3ccc(F)cc3s2)CCN1C[C@H](O)COc1cccc2[nH]ccc12,5.32%
12,COc1cccc2sc([C@H]3CCN(C[C@H](O)COc4cccc5[nH]ccc45)[C@@H](C)C3)cc12,1.38%
13,COc1ccc2cc([C@@H]3CCN(C[C@H](O)COc4cccc5[nH]ccc45)[C@@H](C)C3)sc2c1,5.26%
14,Cc1cccc2sc([C@@H]3CCN(C[C@H](O)COc4cccc5[nH]ccc45)[C@@H](C)C3)cc12,8.48%
15,C[C@H]1C[C@H](c2cc3ccc(Cl)cc3s2)CCN1C[C@H](O)COc1cccc2[nH]ccc12,8.49%
16,C[C@H]1C[C@H](c2cc3c(F)cccc3s2)CCN1C[C@H](O)COc1cccc2[nH]ccc12,5.37%
17,O[C@H](COc1cccc2[nH]ccc12)CN1[C@@H]2CC[C@H]1C[C@H](c1cc3ccccc3s1)C2,9.26%
18,COc1cccc2sc([C@@H]3CCN(C[C@H](O)COc4cccc5[nH]ccc45)[C@@H](C)C3)cc12,7.77%
19,C[C@@H]1C[C@H](c2cc3cc(F)ccc3s2)CCN1C[C@H](O)COc1cccc2[nH]ccc12,7.21%

# Biological target: Sodium-dependent serotonin transporter (Rattus norvegicus, UniProt P31652)
# Sequence (P31652 whole entry): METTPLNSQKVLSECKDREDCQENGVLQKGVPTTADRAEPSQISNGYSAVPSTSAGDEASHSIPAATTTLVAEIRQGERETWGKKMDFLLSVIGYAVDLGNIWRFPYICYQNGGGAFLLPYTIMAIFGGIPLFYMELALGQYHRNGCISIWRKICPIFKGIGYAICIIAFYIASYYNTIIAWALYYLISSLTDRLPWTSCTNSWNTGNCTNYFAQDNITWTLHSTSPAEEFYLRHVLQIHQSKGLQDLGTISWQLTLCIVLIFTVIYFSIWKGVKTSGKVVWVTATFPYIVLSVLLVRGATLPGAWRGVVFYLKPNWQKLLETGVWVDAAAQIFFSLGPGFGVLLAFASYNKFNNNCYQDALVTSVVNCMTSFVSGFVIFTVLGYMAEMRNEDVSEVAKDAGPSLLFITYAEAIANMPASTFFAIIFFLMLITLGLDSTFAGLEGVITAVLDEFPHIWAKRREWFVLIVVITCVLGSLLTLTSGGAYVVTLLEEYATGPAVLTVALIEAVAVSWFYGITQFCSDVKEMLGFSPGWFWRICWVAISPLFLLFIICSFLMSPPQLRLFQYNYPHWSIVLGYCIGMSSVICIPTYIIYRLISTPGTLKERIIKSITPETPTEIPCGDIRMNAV
# Assay: In vitro affinity at the 5-HT reuptake site using [3H]paroxetine as radioligand in rat frontal cortex membranes
# Assay type: cell membranes, Membrane
# Conditions: not given
row,SMILES,pKi
1,Cc1cc(C)c2cc([C@@H]3CCN(C[C@H](O)COc4cccc5[nH]ccc45)[C@@H](C)C3)sc2c1,8.71
2,COc1cccc2sc([C@@H]3C[C@H]4CC[C@@H](C3)N4C[C@H](O)COc3cccc4[nH]ccc34)cc12 (stereo in doubt; endo) [listing 1 of 2 here],9.77
3,C[C@H]1C[C@H](c2cc3ccccc3s2)CCN1C[C@H](O)COc1cccc2[nH]ccc12,9.29
4,C[C@H]1C[C@H](c2cc3cc(F)ccc3s2)CCN1C[C@H](O)COc1cccc2[nH]ccc12,9.41
5,C[C@H]1C[C@H](c2cc3cccc(F)c3s2)CCN1C[C@H](O)COc1cccc2[nH]ccc12,8.46
6,COc1ccc2sc([C@@H]3CCN(C[C@H](O)COc4cccc5[nH]ccc45)[C@@H](C)C3)cc2c1OC,7.97
7,C[C@H]1C[C@H](c2cc3cc(Cl)ccc3s2)CCN1C[C@H](O)COc1cccc2[nH]ccc12,9.24
8,C[C@@H]1C[C@@H](c2cc3cc(F)ccc3s2)CCN1C[C@H](O)COc1cccc2[nH]ccc12,9.00
9,COc1cccc2sc([C@@H]3C[C@H]4CC[C@@H](C3)N4C[C@H](O)COc3cccc4[nH]ccc34)cc12 (stereo in doubt; exo) [listing 2 of 2 here],8.88
10,C[C@H]1C[C@@H](c2cc3cc(F)ccc3s2)CCN1C[C@H](O)COc1cccc2[nH]ccc12,8.37
11,C[C@H]1C[C@H](c2cc3ccc(F)cc3s2)CCN1C[C@H](O)COc1cccc2[nH]ccc12,9.51
12,COc1ccc2cc([C@@H]3CCN(C[C@H](O)COc4cccc5[nH]ccc45)[C@@H](C)C3)sc2c1,8.96
13,Cc1cccc2sc([C@@H]3CCN(C[C@H](O)COc4cccc5[nH]ccc45)[C@@H](C)C3)cc12,9.36
14,C[C@H]1C[C@H](c2cc3ccc(Cl)cc3s2)CCN1C[C@H](O)COc1cccc2[nH]ccc12,8.96
15,C[C@H]1C[C@H](c2cc3c(F)cccc3s2)CCN1C[C@H](O)COc1cccc2[nH]ccc12,8.94
16,C[C@H]1C[C@H](c2cc3c(C(F)(F)F)cccc3s2)CCN1C[C@H](O)COc1cccc2[nH]ccc12,8.46
17,Cc1ccc2cc([C@@H]3CCN(C[C@H](O)COc4cccc5[nH]ccc45)[C@@H](C)C3)sc2c1,8.65
18,O[C@H](COc1cccc2[nH]ccc12)CN1[C@@H]2CC[C@H]1C[C@H](c1cc3ccccc3s1)C2,10.15
19,C[C@@H]1C[C@H](c2cc3cc(F)ccc3s2)CCN1C[C@H](O)COc1cccc2[nH]ccc12,8.45
20,C[C@H]1C[C@H](c2cc3c(Cl)cccc3s2)CCN1C[C@H](O)COc1cccc2[nH]ccc12,9.16

# Biological target: T2, 5-hydroxytryptamine receptor 1A (Homo sapiens, UniProt P08908)
# T2 sequence (P08908 whole entry): T1 sequence (whole entry)
# Assay: (§1) Inhibition of 5-HT induced [35S]GTP-gamma-S, binding at human cloned 5-HT 1A receptors.
# Assay type: functional
# Conditions: not given
row,SMILES,pKi
1,C[C@H]1C[C@H](c2cc3ccccc3s2)CCN1C[C@H](O)COc1cccc2[nH]ccc12,8.48
2,C[C@H]1C[C@H](c2cc3cc(F)ccc3s2)CCN1C[C@H](O)COc1cccc2[nH]ccc12,8.25
3,C[C@H]1C[C@H](c2cc3cccc(F)c3s2)CCN1C[C@H](O)COc1cccc2[nH]ccc12,8.37
4,COc1ccc2sc([C@@H]3CCN(C[C@H](O)COc4cccc5[nH]ccc45)[C@@H](C)C3)cc2c1OC,9.01
5,C[C@H]1C[C@H](c2cc3cc(Cl)ccc3s2)CCN1C[C@H](O)COc1cccc2[nH]ccc12,8.28
6,C[C@@H]1C[C@@H](c2cc3cc(F)ccc3s2)CCN1C[C@H](O)COc1cccc2[nH]ccc12,7.78
7,COc1cccc2sc([C@@H]3C[C@H]4CC[C@@H](C3)N4C[C@H](O)COc3cccc4[nH]ccc34)cc12 (stereo in doubt; exo) [listing 2 of 2 here],7.73
8,C[C@H]1C[C@@H](c2cc3cc(F)ccc3s2)CCN1C[C@H](O)COc1cccc2[nH]ccc12,7.78
9,C[C@H]1C[C@H](c2cc3ccc(F)cc3s2)CCN1C[C@H](O)COc1cccc2[nH]ccc12,8.13
10,COc1ccc2cc([C@@H]3CCN(C[C@H](O)COc4cccc5[nH]ccc45)[C@@H](C)C3)sc2c1,8.53
11,Cc1cccc2sc([C@@H]3CCN(C[C@H](O)COc4cccc5[nH]ccc45)[C@@H](C)C3)cc12,8.06
12,C[C@H]1C[C@H](c2cc3ccc(Cl)cc3s2)CCN1C[C@H](O)COc1cccc2[nH]ccc12,7.93
13,C[C@H]1C[C@H](c2cc3c(F)cccc3s2)CCN1C[C@H](O)COc1cccc2[nH]ccc12,8.31
14,O[C@H](COc1cccc2[nH]ccc12)CN1[C@@H]2CC[C@H]1C[C@H](c1cc3ccccc3s1)C2,7.15
15,C[C@@H]1C[C@H](c2cc3cc(F)ccc3s2)CCN1C[C@H](O)COc1cccc2[nH]ccc12,8.75

# Biological target: T2, 5-hydroxytryptamine receptor 1A
# Assay: In vitro binding affinity at 5-hydroxytryptamine 1A receptor by [3H]8-OH-DPAT displacement.
# Conditions: not given
row,SMILES,pKi
1,Cc1cc(C)c2cc([C@@H]3CCN(C[C@H](O)COc4cccc5[nH]ccc45)[C@@H](C)C3)sc2c1,7.02
2,C[C@H]1C[C@H](c2cc3ccccc3s2)CCN1C[C@H](O)COc1cccc2[nH]ccc12,8.51
3,C[C@H]1C[C@H](c2cc3cc(F)ccc3s2)CCN1C[C@H](O)COc1cccc2[nH]ccc12,8.19
4,C[C@H]1C[C@H](c2cc3cccc(F)c3s2)CCN1C[C@H](O)COc1cccc2[nH]ccc12,7.66
5,COc1ccc2sc([C@@H]3CCN(C[C@H](O)COc4cccc5[nH]ccc45)[C@@H](C)C3)cc2c1OC,8.89
6,C[C@H]1C[C@H](c2cc3cc(Cl)ccc3s2)CCN1C[C@H](O)COc1cccc2[nH]ccc12,8.08
7,C[C@@H]1C[C@@H](c2cc3cc(F)ccc3s2)CCN1C[C@H](O)COc1cccc2[nH]ccc12,7.93
8,COc1cccc2sc([C@@H]3C[C@H]4CC[C@@H](C3)N4C[C@H](O)COc3cccc4[nH]ccc34)cc12 (stereo in doubt; exo) [listing 2 of 2 here],7.80
9,C[C@H]1C[C@@H](c2cc3cc(F)ccc3s2)CCN1C[C@H](O)COc1cccc2[nH]ccc12,7.43
10,C[C@H]1C[C@H](c2cc3ccc(F)cc3s2)CCN1C[C@H](O)COc1cccc2[nH]ccc12,8.26
11,COc1ccc2cc([C@@H]3CCN(C[C@H](O)COc4cccc5[nH]ccc45)[C@@H](C)C3)sc2c1,7.84
12,Cc1cccc2sc([C@@H]3CCN(C[C@H](O)COc4cccc5[nH]ccc45)[C@@H](C)C3)cc12,8.16
13,C[C@H]1C[C@H](c2cc3ccc(Cl)cc3s2)CCN1C[C@H](O)COc1cccc2[nH]ccc12,7.60
14,C[C@H]1C[C@H](c2cc3c(C(F)(F)F)cccc3s2)CCN1C[C@H](O)COc1cccc2[nH]ccc12,7.62
15,O[C@H](COc1cccc2[nH]ccc12)CN1[C@@H]2CC[C@H]1C[C@H](c1cc3ccccc3s1)C2,7.51
16,C[C@@H]1C[C@H](c2cc3cc(F)ccc3s2)CCN1C[C@H](O)COc1cccc2[nH]ccc12,8.06

# Biological target: T1, 5-hydroxytryptamine receptor 1A (Homo sapiens)
# Assay: as §1
# Assay type: functional
# Conditions: not given
row,SMILES,Emin
1,C[C@H]1C[C@H](c2cc3ccccc3s2)CCN1C[C@H](O)COc1cccc2[nH]ccc12,7.5%
2,C[C@H]1C[C@H](c2cc3cc(F)ccc3s2)CCN1C[C@H](O)COc1cccc2[nH]ccc12,7.69%
3,C[C@H]1C[C@H](c2cc3cccc(F)c3s2)CCN1C[C@H](O)COc1cccc2[nH]ccc12,6.8%
4,COc1cccc2sc([C@@H]3CCN(C[C@H](O)COc4cccc5[nH]ccc45)[C@H](C)C3)cc12,2.01%
5,COc1ccc2sc([C@@H]3CCN(C[C@H](O)COc4cccc5[nH]ccc45)[C@@H](C)C3)cc2c1OC,4.8%
6,C[C@H]1C[C@H](c2cc3cc(Cl)ccc3s2)CCN1C[C@H](O)COc1cccc2[nH]ccc12,6.81%
7,C[C@@H]1C[C@@H](c2cc3cc(F)ccc3s2)CCN1C[C@H](O)COc1cccc2[nH]ccc12,10.5%
8,COc1cccc2sc([C@H]3CCN(C[C@H](O)COc4cccc5[nH]ccc45)[C@H](C)C3)cc12,5.97%
9,COc1cccc2sc([C@@H]3C[C@H]4CC[C@@H](C3)N4C[C@H](O)COc3cccc4[nH]ccc34)cc12 (stereo in doubt; exo) [listing 1 of 2 here],4.02%
10,C[C@H]1C[C@@H](c2cc3cc(F)ccc3s2)CCN1C[C@H](O)COc1cccc2[nH]ccc12,7.87%
11,C[C@H]1C[C@H](c2cc3ccc(F)cc3s2)CCN1C[C@H](O)COc1cccc2[nH]ccc12,9%
12,COc1cccc2sc([C@H]3CCN(C[C@H](O)COc4cccc5[nH]ccc45)[C@@H](C)C3)cc12,1.43%
13,COc1ccc2cc([C@@H]3CCN(C[C@H](O)COc4cccc5[nH]ccc45)[C@@H](C)C3)sc2c1,6.67%
14,Cc1cccc2sc([C@@H]3CCN(C[C@H](O)COc4cccc5[nH]ccc45)[C@@H](C)C3)cc12,4.96%
15,C[C@H]1C[C@H](c2cc3ccc(Cl)cc3s2)CCN1C[C@H](O)COc1cccc2[nH]ccc12,7.99%
16,C[C@H]1C[C@H](c2cc3c(F)cccc3s2)CCN1C[C@H](O)COc1cccc2[nH]ccc12,7.44%
17,O[C@H](COc1cccc2[nH]ccc12)CN1[C@@H]2CC[C@H]1C[C@H](c1cc3ccccc3s1)C2,9.4%
18,C[C@@H]1C[C@H](c2cc3cc(F)ccc3s2)CCN1C[C@H](O)COc1cccc2[nH]ccc12,10.8%

# Biological target: T1, 5-hydroxytryptamine receptor 1A (Homo sapiens)
# Assay: In vitro binding affinity towards 5-hydroxytryptamine 1A receptor using [3H]8-OH-DPAT as radioligand
# Conditions: concentration not given here
row,SMILES,inhibition
1,COc1cccc2sc([C@@H]3C[C@H]4CC[C@@H](C3)N4C[C@H](O)COc3cccc4[nH]ccc34)cc12 (stereo in doubt; endo) [listing 2 of 2 here],> 50%
2,Cc1ccc2cc([C@@H]3CCN(C[C@H](O)COc4cccc5[nH]ccc45)[C@@H](C)C3)sc2c1,< 50%
3,C[C@H]1C[C@H](c2cc3c(Cl)cccc3s2)CCN1C[C@H](O)COc1cccc2[nH]ccc12,< 50%
